Data as given in the NIST ThermoML archive (doi:10.1021/je025649t).
Numbers after ± are expanded uncertainties.

Legend:
[1] = xn = mol fraction of the nth substance listed; conditions: 298.15 K, 101 kPa, Liquid, Vibrating tube method
[2] = refractive index (Na D-line) (dimensionless); xn = mol fraction of the nth substance listed; conditions: 298.15 K, 101 kPa, Liquid, refractometer
[3] = heat capacity at constant pressure per volume; xn = mol fraction of the nth substance listed; conditions: 298.15 K, 101 kPa, Liquid, Flow calorimetry
[4] = excess molar enthalpy (molar enthalpy of mixing); xn = mol fraction of the nth substance listed; conditions: 298.15 K, 101 kPa, Liquid, Flow calorimetry
[5] = 298.15 K; 101.33 kPa; Liquid; Vibrating tube method
[6] = molar heat capacity at constant pressure; conditions: 298.15 K; 101.33 kPa; Liquid; Flow calorimetry
[7] = refractive index (Na D-line) (dimensionless); conditions: 298.15 K; 101.33 kPa; Liquid; refractometer

Compound: CCCCCC(C)=O [2-heptanone] + C1CCOCC1
- mass density ([1]; x2 = 0.0796): 814.73 ± 0.81 kg/m3
- mass density ([1]; x2 = 0.1679): 819.18 ± 0.77 kg/m3
- mass density ([1]; x2 = 0.2235): 822.12 ± 0.75 kg/m3
- mass density ([1]; x2 = 0.3185): 827.4 ± 0.72 kg/m3
- mass density ([1]; x2 = 0.3518): 829.33 ± 0.7 kg/m3
- mass density ([1]; x2 = 0.4045): 832.49 ± 0.68 kg/m3
- mass density ([1]; x2 = 0.4377): 834.53 ± 0.67 kg/m3
- mass density ([1]; x2 = 0.4617): 836.04 ± 0.66 kg/m3
- mass density ([1]; x2 = 0.5166): 839.61 ± 0.64 kg/m3
- mass density ([1]; x2 = 0.5455): 841.54 ± 0.63 kg/m3
- mass density ([1]; x2 = 0.5907): 844.65 ± 0.61 kg/m3
- mass density ([1]; x2 = 0.6312): 847.53 ± 0.6 kg/m3
- mass density ([1]; x2 = 0.6667): 850.14 ± 0.58 kg/m3
- mass density ([1]; x2 = 0.7077): 853.23 ± 0.57 kg/m3
- mass density ([1]; x2 = 0.7101): 853.42 ± 0.57 kg/m3
- mass density ([1]; x2 = 0.7907): 859.84 ± 0.54 kg/m3
- mass density ([1]; x2 = 0.8696): 866.59 ± 0.5 kg/m3
- mass density ([1]; x2 = 0.9539): 874.37 ± 0.47 kg/m3
- refractive index ([2]; x2 = 0.0855): 1.4075 ± 0.00039
- refractive index ([2]; x2 = 0.1588): 1.4081 ± 0.00037
- refractive index ([2]; x2 = 0.2375): 1.40879 ± 0.00036
- refractive index ([2]; x2 = 0.3113): 1.40947 ± 0.00034
- refractive index ([2]; x2 = 0.3532): 1.40988 ± 0.00033
- refractive index ([2]; x2 = 0.3936): 1.41029 ± 0.00033
- refractive index ([2]; x2 = 0.4287): 1.41065 ± 0.00032
- refractive index ([2]; x2 = 0.4658): 1.41105 ± 0.00031
- refractive index ([2]; x2 = 0.5486): 1.41198 ± 0.0003
- refractive index ([2]; x2 = 0.5896): 1.41246 ± 0.00029
- refractive index ([2]; x2 = 0.6261): 1.41291 ± 0.00028
- refractive index ([2]; x2 = 0.6665): 1.41343 ± 0.00027
- refractive index ([2]; x2 = 0.7046): 1.41393 ± 0.00026
- refractive index ([2]; x2 = 0.7855): 1.41507 ± 0.00025
- refractive index ([2]; x2 = 0.8677): 1.41633 ± 0.00023
- refractive index ([2]; x2 = 0.9473): 1.41768 ± 0.00022
- heat capacity ([3]; x2 = 0.0687): 1711900 ± 2700 J/K/m3
- heat capacity ([3]; x2 = 0.1469): 1699600 ± 2600 J/K/m3
- heat capacity ([3]; x2 = 0.2226): 1687400 ± 2600 J/K/m3
- heat capacity ([3]; x2 = 0.3113): 1672200 ± 2600 J/K/m3
- heat capacity ([3]; x2 = 0.3855): 1659100 ± 2600 J/K/m3
- heat capacity ([3]; x2 = 0.4613): 1645000 ± 2500 J/K/m3
- heat capacity ([3]; x2 = 0.5449): 1628000 ± 2500 J/K/m3
- heat capacity ([3]; x2 = 0.6288): 1610700 ± 2500 J/K/m3
- heat capacity ([3]; x2 = 0.7034): 1594700 ± 2500 J/K/m3
- heat capacity ([3]; x2 = 0.7801): 1576700 ± 2400 J/K/m3
- heat capacity ([3]; x2 = 0.8581): 1558500 ± 2400 J/K/m3
- heat capacity ([3]; x2 = 0.9388): 1538500 ± 2400 J/K/m3
- excess molar enthalpy ([4]; x2 = 0.1): 0.00354 ± 0.000215 kcal/mol
- excess molar enthalpy ([4]; x2 = 0.15): 0.0053 ± 0.000232 kcal/mol
- excess molar enthalpy ([4]; x2 = 0.2): 0.00696 ± 0.000239 kcal/mol
- excess molar enthalpy ([4]; x2 = 0.25): 0.0082 ± 0.000263 kcal/mol
- excess molar enthalpy ([4]; x2 = 0.3): 0.00946 ± 0.000263 kcal/mol
- excess molar enthalpy ([4]; x2 = 0.35): 0.0106 ± 0.000263 kcal/mol
- excess molar enthalpy ([4]; x2 = 0.4): 0.0118 ± 0.000287 kcal/mol
- excess molar enthalpy ([4]; x2 = 0.45): 0.0129 ± 0.000287 kcal/mol
- excess molar enthalpy ([4]; x2 = 0.5): 0.0138 ± 0.000287 kcal/mol
- excess molar enthalpy ([4]; x2 = 0.55): 0.0144 ± 0.000311 kcal/mol
- excess molar enthalpy ([4]; x2 = 0.6): 0.0147 ± 0.000311 kcal/mol
- excess molar enthalpy ([4]; x2 = 0.65): 0.0146 ± 0.000311 kcal/mol
- excess molar enthalpy ([4]; x2 = 0.7): 0.0142 ± 0.000287 kcal/mol
- excess molar enthalpy ([4]; x2 = 0.75): 0.0134 ± 0.000287 kcal/mol
- excess molar enthalpy ([4]; x2 = 0.8): 0.012 ± 0.000287 kcal/mol
- excess molar enthalpy ([4]; x2 = 0.85): 0.0103 ± 0.000263 kcal/mol
- excess molar enthalpy ([4]; x2 = 0.9): 0.00793 ± 0.000263 kcal/mol

Compound: O=C1CCCCC1 [cyclohexanone] + C1CCOCC1
- excess molar enthalpy ([4]; x2 = 0.1): 0.00647 ± 0.000239 kcal/mol
- excess molar enthalpy ([4]; x2 = 0.15): 0.00919 ± 0.000263 kcal/mol
- excess molar enthalpy ([4]; x2 = 0.2): 0.0117 ± 0.000287 kcal/mol
- excess molar enthalpy ([4]; x2 = 0.25): 0.0139 ± 0.000287 kcal/mol
- excess molar enthalpy ([4]; x2 = 0.3): 0.016 ± 0.000311 kcal/mol
- excess molar enthalpy ([4]; x2 = 0.35): 0.0176 ± 0.000335 kcal/mol
- excess molar enthalpy ([4]; x2 = 0.4): 0.0189 ± 0.000335 kcal/mol
- excess molar enthalpy ([4]; x2 = 0.45): 0.0198 ± 0.000335 kcal/mol
- excess molar enthalpy ([4]; x2 = 0.5): 0.0207 ± 0.000335 kcal/mol
- excess molar enthalpy ([4]; x2 = 0.55): 0.0214 ± 0.000359 kcal/mol
- excess molar enthalpy ([4]; x2 = 0.6): 0.0215 ± 0.000359 kcal/mol
- excess molar enthalpy ([4]; x2 = 0.65): 0.0209 ± 0.000359 kcal/mol
- excess molar enthalpy ([4]; x2 = 0.7): 0.0199 ± 0.000335 kcal/mol
- excess molar enthalpy ([4]; x2 = 0.75): 0.0184 ± 0.000335 kcal/mol
- excess molar enthalpy ([4]; x2 = 0.8): 0.0164 ± 0.000311 kcal/mol
- excess molar enthalpy ([4]; x2 = 0.85): 0.0137 ± 0.000311 kcal/mol
- excess molar enthalpy ([4]; x2 = 0.9): 0.01 ± 0.000263 kcal/mol

Compound: CCCC(C)=O [pentan-2-one] + C1CCOCC1
- mass density ([1]; x2 = 0.0708): 806.39 ± 0.42 kg/m3
- mass density ([1]; x2 = 0.1523): 812.26 ± 0.43 kg/m3
- mass density ([1]; x2 = 0.2361): 818.39 ± 0.43 kg/m3
- mass density ([1]; x2 = 0.3015): 823.22 ± 0.43 kg/m3
- mass density ([1]; x2 = 0.3529): 827.06 ± 0.43 kg/m3
- mass density ([1]; x2 = 0.3858): 829.54 ± 0.43 kg/m3
- mass density ([1]; x2 = 0.4384): 833.53 ± 0.43 kg/m3
- mass density ([1]; x2 = 0.4683): 835.82 ± 0.44 kg/m3
- mass density ([1]; x2 = 0.5046): 838.6 ± 0.44 kg/m3
- mass density ([1]; x2 = 0.5548): 842.49 ± 0.44 kg/m3
- mass density ([1]; x2 = 0.5825): 844.66 ± 0.44 kg/m3
- mass density ([1]; x2 = 0.6397): 849.17 ± 0.44 kg/m3
- mass density ([1]; x2 = 0.6747): 851.95 ± 0.44 kg/m3
- mass density ([1]; x2 = 0.7079): 854.61 ± 0.44 kg/m3
- mass density ([1]; x2 = 0.7776): 860.26 ± 0.45 kg/m3
- mass density ([1]; x2 = 0.8646): 867.44 ± 0.45 kg/m3
- mass density ([1]; x2 = 0.9428): 874.02 ± 0.45 kg/m3
- refractive index ([2]; x2 = 0.0811): 1.39011 ± 0.00021
- refractive index ([2]; x2 = 0.1565): 1.39223 ± 0.00021
- refractive index ([2]; x2 = 0.2425): 1.39468 ± 0.00021
- refractive index ([2]; x2 = 0.3122): 1.39668 ± 0.00021
- refractive index ([2]; x2 = 0.3557): 1.39796 ± 0.00021
- refractive index ([2]; x2 = 0.4037): 1.39937 ± 0.00021
- refractive index ([2]; x2 = 0.4406): 1.40047 ± 0.00021
- refractive index ([2]; x2 = 0.4757): 1.40153 ± 0.00021
- refractive index ([2]; x2 = 0.5107): 1.40259 ± 0.00021
- refractive index ([2]; x2 = 0.5449): 1.40364 ± 0.00021
- refractive index ([2]; x2 = 0.5933): 1.40514 ± 0.00021
- refractive index ([2]; x2 = 0.6252): 1.40614 ± 0.00021
- refractive index ([2]; x2 = 0.6681): 1.4075 ± 0.00021
- refractive index ([2]; x2 = 0.708): 1.40878 ± 0.00021
- refractive index ([2]; x2 = 0.7915): 1.4115 ± 0.00021
- refractive index ([2]; x2 = 0.8776): 1.41439 ± 0.00021
- refractive index ([2]; x2 = 0.9411): 1.41658 ± 0.00021
- heat capacity ([3]; x2 = 0.0611): 1698200 ± 2600 J/K/m3
- heat capacity ([3]; x2 = 0.1398): 1685200 ± 2600 J/K/m3
- heat capacity ([3]; x2 = 0.2219): 1670700 ± 2600 J/K/m3
- heat capacity ([3]; x2 = 0.3029): 1656100 ± 2600 J/K/m3
- heat capacity ([3]; x2 = 0.3789): 1641900 ± 2500 J/K/m3
- heat capacity ([3]; x2 = 0.457): 1627300 ± 2500 J/K/m3
- heat capacity ([3]; x2 = 0.5376): 1611700 ± 2500 J/K/m3
- heat capacity ([3]; x2 = 0.6153): 1596800 ± 2500 J/K/m3
- heat capacity ([3]; x2 = 0.698): 1580600 ± 2400 J/K/m3
- heat capacity ([3]; x2 = 0.7772): 1565100 ± 2400 J/K/m3
- heat capacity ([3]; x2 = 0.8503): 1550300 ± 2400 J/K/m3
- heat capacity ([3]; x2 = 0.9311): 1533300 ± 2400 J/K/m3
- excess molar enthalpy ([4]; x2 = 0.1): 0.00636 ± 0.000239 kcal/mol
- excess molar enthalpy ([4]; x2 = 0.15): 0.0092 ± 0.000263 kcal/mol
- excess molar enthalpy ([4]; x2 = 0.2): 0.0119 ± 0.000287 kcal/mol
- excess molar enthalpy ([4]; x2 = 0.25): 0.0144 ± 0.000311 kcal/mol
- excess molar enthalpy ([4]; x2 = 0.3): 0.0164 ± 0.000311 kcal/mol
- excess molar enthalpy ([4]; x2 = 0.35): 0.0182 ± 0.000335 kcal/mol
- excess molar enthalpy ([4]; x2 = 0.4): 0.0197 ± 0.000335 kcal/mol
- excess molar enthalpy ([4]; x2 = 0.45): 0.0209 ± 0.000359 kcal/mol
- excess molar enthalpy ([4]; x2 = 0.5): 0.0218 ± 0.000359 kcal/mol
- excess molar enthalpy ([4]; x2 = 0.55): 0.0222 ± 0.000359 kcal/mol
- excess molar enthalpy ([4]; x2 = 0.6): 0.0222 ± 0.000359 kcal/mol
- excess molar enthalpy ([4]; x2 = 0.65): 0.0219 ± 0.000359 kcal/mol
- excess molar enthalpy ([4]; x2 = 0.7): 0.0212 ± 0.000359 kcal/mol
- excess molar enthalpy ([4]; x2 = 0.75): 0.0197 ± 0.000335 kcal/mol
- excess molar enthalpy ([4]; x2 = 0.8): 0.0174 ± 0.000335 kcal/mol
- excess molar enthalpy ([4]; x2 = 0.85): 0.0145 ± 0.000311 kcal/mol
- excess molar enthalpy ([4]; x2 = 0.9): 0.0107 ± 0.000287 kcal/mol

Compound: C1CCOCC1 [tetrahydropyran]
- mass density [5]: 878.91 kg/m3
- molar heat capacity at constant pressure [6]: 149.32 J/K/mol
- refractive index [7]: 1.41865
